Reference: the supplement of paper PMC10307832

How the values were obtained:
Assay in all cases: relative viability (nuclei count vs DMSO), 5 days (fraction); higher = more cells survive
[1] = compound: CCn1c(-c2nonc2N)nc2cnc(Oc3cccc(NC(=O)c4ccc(OCCN5CCOCC5)cc4)c3)cc21 + O=C(c1cc(Cc2n[nH]c(=O)c3ccccc23)ccc1F)N1CCN(C(=O)C2CC2)CC1 [Olaparib] (partner 8 µM)
Outline: (§1)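 Lung cancer cell lines in 1536-well plates were dosed by pin tool the day after seeding, either with one drug alone or with a fixed anchor-drug dose plus five library-drug doses (not always all listed) in √10 steps. After 5 days, cells were fixed and their nuclei stained in one step (final 0.05% Triton X-100, 1% formaldehyde, 1 ug/ml Hoechst), then counted on 4× images. Relative viability is the nuclei count in treated wells divided by that in vehicle wells. Values are medians of duplicate plates.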

Mirin + Navitoclax = compound: N=C1NC(=O)/C(=C/c2ccc(O)cc2)S1 [Mirin] + CC1(C)CCC(c2ccc(Cl)cc2)=C(CN2CCN(c3ccc(C(=O)NS(=O)(=O)c4ccc(N[C@H](CCN5CCOCC5)CSc5ccccc5)c(S(=O)(=O)C(F)(F)F)c4)cc3)CC2)C1 [Navitoclax] (partner 0.5 µM)
Outline: as §1

Mirin + Linsitinib = compound: N=C1NC(=O)/C(=C/c2ccc(O)cc2)S1 [Mirin] + C[C@]1(O)C[C@@H](c2nc(-c3ccc4ccc(-c5ccccc5)nc4c3)c3c(N)nccn32)C1 [Linsitinib] (partner 1 µM)
Outline: as §1

[2] = compound: CCC1=CN=CN=C1N2CCN(CC2)CC3=NC4=C(N3)C=C(C=C4)C(F)(F)F + C[C@]1(O)C[C@@H](c2nc(-c3ccc4ccc(-c5ccccc5)nc4c3)c3c(N)nccn32)C1 [Linsitinib] (partner 1 µM)
Outline: as §1

## UMC-11
[1]; first compound 0.04 µM
  relative viability: 0.38
[1]; first compound 0.1265 µM
  relative viability: 0.303
[1]; first compound 0.4 µM
  relative viability: 0.32
[1]; first compound 1.265 µM
  relative viability: 0.088
[1]; first compound 4 µM
  relative viability: 0.185
Mirin + Navitoclax; first compound 0.25 µM
  relative viability: 0.324
Mirin + Navitoclax; first compound 0.7906 µM
  relative viability: 0.312
Mirin + Navitoclax; first compound 2.5 µM
  relative viability: 0.283
Mirin + Navitoclax; first compound 7.906 µM
  relative viability: 0.276
Mirin + Navitoclax; first compound 25 µM
  relative viability: 0.209
Mirin + Linsitinib; first compound 0.25 µM
  relative viability: 1
Mirin + Linsitinib; first compound 0.7906 µM
  relative viability: 0.963
Mirin + Linsitinib; first compound 2.5 µM
  relative viability: 1.07
Mirin + Linsitinib; first compound 7.906 µM
  relative viability: 0.803
Mirin + Linsitinib; first compound 25 µM
  relative viability: 0.66
[2]; first compound 0.04 µM
  relative viability: 1.03
[2]; first compound 0.1265 µM
  relative viability: 1.02
[2]; first compound 0.4 µM
  relative viability: 1.03
[2]; first compound 1.265 µM
  relative viability: 0.958
[2]; first compound 4 µM
  relative viability: 0.944
